Consider six compounds from patent publication US12421243B2, “Pharmaceutically effective compounds inhibiting selectively the myosin 2 isoforms” (PRINTNET KERESKEDELMI ÉS SZOLGÁLTATÓ KFT., priority 2018, dated 2025).

In test [1] the target is isolated smooth muscle myosin (UniProt P10587). Type of test: biochemical, chamois. Conditions: concentration required for semi-maximal inhibition of ATPase. The text has this:
(ii) the concentration required for semi-maximal inhibition.

The target of test [2] is recombinant human non-muscle myosin 2 NM2C (Homo sapiens, UniProt Q7Z406). Nature of the test: actomyosin steady state ATPase measurement, NM2C. Type of test: biochemical. Conditions: for IC50: concentration required for semi-maximal inhibition of ATPase; for inhibition at 5 µM: read-out: % inhibition at 5 μM (or 10 μM if racemate) NM2C, 5 μM (10 μM if racemate); for inhibition at 5 µM / inhibition at 50 µM: ATPase activity; for inhibition at 50 µM: read-out: % inhibition at 50 μM (or 100 μM if racemate) NM2C, 50 μM (100 μM if racemate); for % inhibition. complete NM2C: maximum value of inhibition of ATPase activity. The text has this: (§1) […]; (ii) the concentration required for semi-maximal inhibition.

Test [3] concerns the target isolated smooth muscle myosin (UniProt P10587). Type of test: biochemical, chamois. Conditions: for % inhibition at 5 μM (or 10 μM if racemate) Smooth: 5 μM (10 μM if racemate); for % inhibition at 5 μM (or 10 μM if racemate) Smooth / % inhibition at 50 μM (or 100 μM if racemate) Smooth: ATPase activity; for % inhibition at 50 μM (or 100 μM if racemate) Smooth: 50 μM (100 μM if racemate); for Inhibition (%) smooth: maximum inhibition, compounds in IC50 range 1-5 μM; for % inhibition. complete Smooth: maximum value of inhibition of ATPase activity.

The subject of test [4] is isolated rabbit skeletal muscle myosin (skeletal). The experiment in a line: actomyosin steady state ATPase measurement, skeletal muscle myosin. Conditions: for % inhibition at 5 μM (or 10 μM if racemate) Skeletal: 5 μM (10 μM if racemate); for % inhibition at 5 μM (or 10 μM if racemate) Skeletal / % inhibition at 50 μM (or 100 μM if racemate) Skeletal: ATPase activity; for % inhibition at 50 μM (or 100 μM if racemate) Skeletal: 50 μM (100 μM if racemate); for IC50: concentration required for semi-maximal inhibition of ATPase; for % inhibition. complete Skeletal: maximum value of inhibition of ATPase activity. It is filed as biochemical.
Text: as §1

Test [5] addresses recombinant Dictyostelium miozin (Dictyostelium) (Dictyostelium discoideum, UniProt P08799). Nature of the test: actomyosin steady state ATPase measurement, Dictyostelium myosin. It is filed as biochemical. Conditions: for IC50: concentration required for semi-maximal inhibition of ATPase, read-out: IC50 (μM) Dicty; for inhibition at 5 µM: read-out: % inhibition at 5 μM (or 10 μM if racemate) Dicty; for inhibition at 50 µM: read-out: % inhibition at 50 μM (or 100 μM if racemate) Dicty; for % inhibition. complete Dicty: maximum value of inhibition of ATPase activity.
Text: as §1

Test [6] deals with T1, isolated porcine cardiac ventricular myocardium (cardiac) (Sus scrofa, UniProt P79293).
T1 construct: isolated porcine cardiac ventricular myocardium (cardiac); from tissue; host or cells: porcine cardiac ventricle
The experiment in a line: actomyosin steady state ATPase measurement, cardiac myosin. It is filed as biochemical. Conditions: for IC50: concentration required for semi-maximal inhibition of ATPase; for % inhibition. complete cardiac: maximum value of inhibition of ATPase activity; for inhibition at 5 µM: read-out: % inhibition at 5 μM (or 10 μM if racemate) cardiac, 5 μM (10 μM if racemate); for inhibition at 5 µM / inhibition at 50 µM: ATPase activity; for inhibition at 50 µM: read-out: % inhibition at 50 μM (or 100 μM if racemate) cardiac, 50 μM (100 μM if racemate).
Text: as §1

Test [7] deals with recombinant human non-muscle myosin 2 NM2A (Homo sapiens, UniProt P35579). The experiment in a line: actomyosin steady state ATPase measurement, NM2A. Conditions: for IC50: concentration required for semi-maximal inhibition of ATPase; for Inhibition (%) NM2A: maximum inhibition, compounds in IC50 range 5-10 μM; for % inhibition. complete NM2A: maximum value of inhibition of ATPase activity; for inhibition at 5 µM: read-out: % inhibition at 5 μM (or 10 μM if racemate) NM2A, 5 μM (10 μM if racemate); for inhibition at 5 µM / inhibition at 50 µM: ATPase activity; for inhibition at 50 µM: read-out: % inhibition at 50 μM (or 100 μM if racemate) NM2A, 50 μM (100 μM if racemate). Type of test: biochemical.
Text: as §1

For test [8], the target named is recombinant human non-muscle myosin 2 NM2B (Homo sapiens, UniProt P35580). Nature of the test: actomyosin steady state ATPase measurement, NM2B. It is filed as biochemical. Conditions: for IC50: concentration required for semi-maximal inhibition of ATPase; for inhibition at 5 µM: read-out: % inhibition at 5 μM (or 10 μM if racemate) NM2B, 5 μM (10 μM if racemate); for inhibition at 5 µM / inhibition at 50 µM: ATPase activity; for inhibition at 50 µM: read-out: % inhibition at 50 μM (or 100 μM if racemate) NM2B, 50 μM (100 μM if racemate).
Text: as §1

Bounds are passed on as bounds.

Chain of recombinant human non-muscle myosin 2 NM2C (Q7Z406 whole entry): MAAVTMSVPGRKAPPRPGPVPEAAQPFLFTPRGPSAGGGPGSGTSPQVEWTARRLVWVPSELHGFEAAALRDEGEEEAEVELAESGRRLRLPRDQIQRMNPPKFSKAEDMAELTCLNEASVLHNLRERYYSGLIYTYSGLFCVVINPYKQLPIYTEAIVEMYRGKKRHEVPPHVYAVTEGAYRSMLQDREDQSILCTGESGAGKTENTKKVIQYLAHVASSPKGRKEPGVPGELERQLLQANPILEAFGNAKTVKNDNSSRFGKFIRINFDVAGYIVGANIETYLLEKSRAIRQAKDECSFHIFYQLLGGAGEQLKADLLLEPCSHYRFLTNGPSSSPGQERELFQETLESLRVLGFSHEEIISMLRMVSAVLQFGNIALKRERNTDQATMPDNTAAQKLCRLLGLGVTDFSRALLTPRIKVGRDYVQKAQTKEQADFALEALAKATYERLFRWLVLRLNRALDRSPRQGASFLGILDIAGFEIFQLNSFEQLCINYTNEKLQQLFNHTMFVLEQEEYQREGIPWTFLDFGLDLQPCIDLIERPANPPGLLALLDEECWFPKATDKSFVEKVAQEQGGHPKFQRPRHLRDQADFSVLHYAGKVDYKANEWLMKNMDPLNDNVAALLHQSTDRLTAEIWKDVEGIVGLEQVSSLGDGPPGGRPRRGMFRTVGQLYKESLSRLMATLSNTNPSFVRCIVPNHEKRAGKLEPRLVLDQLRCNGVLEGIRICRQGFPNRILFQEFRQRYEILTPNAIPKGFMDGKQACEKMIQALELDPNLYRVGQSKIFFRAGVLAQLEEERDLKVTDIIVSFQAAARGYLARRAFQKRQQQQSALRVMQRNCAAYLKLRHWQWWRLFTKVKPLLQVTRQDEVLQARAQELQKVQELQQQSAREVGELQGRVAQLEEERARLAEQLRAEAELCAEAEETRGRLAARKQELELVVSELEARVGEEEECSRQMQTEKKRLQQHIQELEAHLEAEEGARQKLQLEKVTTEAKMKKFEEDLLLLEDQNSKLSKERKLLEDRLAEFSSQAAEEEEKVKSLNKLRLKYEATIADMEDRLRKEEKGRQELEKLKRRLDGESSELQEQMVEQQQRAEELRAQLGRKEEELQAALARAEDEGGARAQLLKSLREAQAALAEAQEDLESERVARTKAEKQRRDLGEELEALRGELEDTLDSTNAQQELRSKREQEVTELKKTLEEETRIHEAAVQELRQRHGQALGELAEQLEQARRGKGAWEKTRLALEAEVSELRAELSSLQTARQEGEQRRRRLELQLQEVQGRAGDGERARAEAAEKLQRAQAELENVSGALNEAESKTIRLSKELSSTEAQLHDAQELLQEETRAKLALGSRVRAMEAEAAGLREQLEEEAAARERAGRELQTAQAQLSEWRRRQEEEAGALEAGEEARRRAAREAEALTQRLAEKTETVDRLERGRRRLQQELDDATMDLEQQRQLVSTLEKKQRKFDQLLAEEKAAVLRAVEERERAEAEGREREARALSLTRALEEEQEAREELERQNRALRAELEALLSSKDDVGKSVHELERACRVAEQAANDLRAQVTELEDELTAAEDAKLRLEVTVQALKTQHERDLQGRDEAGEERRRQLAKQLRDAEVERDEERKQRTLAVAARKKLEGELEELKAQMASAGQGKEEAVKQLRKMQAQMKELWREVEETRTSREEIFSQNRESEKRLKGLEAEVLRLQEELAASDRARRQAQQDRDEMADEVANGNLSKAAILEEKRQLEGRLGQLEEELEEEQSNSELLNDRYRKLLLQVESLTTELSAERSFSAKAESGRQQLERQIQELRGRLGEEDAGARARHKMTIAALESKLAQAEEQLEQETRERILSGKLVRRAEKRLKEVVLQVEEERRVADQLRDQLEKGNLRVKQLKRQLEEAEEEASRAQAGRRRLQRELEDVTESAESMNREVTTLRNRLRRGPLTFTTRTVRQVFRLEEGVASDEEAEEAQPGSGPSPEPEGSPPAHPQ
Chain of isolated smooth muscle myosin (P10587 whole entry): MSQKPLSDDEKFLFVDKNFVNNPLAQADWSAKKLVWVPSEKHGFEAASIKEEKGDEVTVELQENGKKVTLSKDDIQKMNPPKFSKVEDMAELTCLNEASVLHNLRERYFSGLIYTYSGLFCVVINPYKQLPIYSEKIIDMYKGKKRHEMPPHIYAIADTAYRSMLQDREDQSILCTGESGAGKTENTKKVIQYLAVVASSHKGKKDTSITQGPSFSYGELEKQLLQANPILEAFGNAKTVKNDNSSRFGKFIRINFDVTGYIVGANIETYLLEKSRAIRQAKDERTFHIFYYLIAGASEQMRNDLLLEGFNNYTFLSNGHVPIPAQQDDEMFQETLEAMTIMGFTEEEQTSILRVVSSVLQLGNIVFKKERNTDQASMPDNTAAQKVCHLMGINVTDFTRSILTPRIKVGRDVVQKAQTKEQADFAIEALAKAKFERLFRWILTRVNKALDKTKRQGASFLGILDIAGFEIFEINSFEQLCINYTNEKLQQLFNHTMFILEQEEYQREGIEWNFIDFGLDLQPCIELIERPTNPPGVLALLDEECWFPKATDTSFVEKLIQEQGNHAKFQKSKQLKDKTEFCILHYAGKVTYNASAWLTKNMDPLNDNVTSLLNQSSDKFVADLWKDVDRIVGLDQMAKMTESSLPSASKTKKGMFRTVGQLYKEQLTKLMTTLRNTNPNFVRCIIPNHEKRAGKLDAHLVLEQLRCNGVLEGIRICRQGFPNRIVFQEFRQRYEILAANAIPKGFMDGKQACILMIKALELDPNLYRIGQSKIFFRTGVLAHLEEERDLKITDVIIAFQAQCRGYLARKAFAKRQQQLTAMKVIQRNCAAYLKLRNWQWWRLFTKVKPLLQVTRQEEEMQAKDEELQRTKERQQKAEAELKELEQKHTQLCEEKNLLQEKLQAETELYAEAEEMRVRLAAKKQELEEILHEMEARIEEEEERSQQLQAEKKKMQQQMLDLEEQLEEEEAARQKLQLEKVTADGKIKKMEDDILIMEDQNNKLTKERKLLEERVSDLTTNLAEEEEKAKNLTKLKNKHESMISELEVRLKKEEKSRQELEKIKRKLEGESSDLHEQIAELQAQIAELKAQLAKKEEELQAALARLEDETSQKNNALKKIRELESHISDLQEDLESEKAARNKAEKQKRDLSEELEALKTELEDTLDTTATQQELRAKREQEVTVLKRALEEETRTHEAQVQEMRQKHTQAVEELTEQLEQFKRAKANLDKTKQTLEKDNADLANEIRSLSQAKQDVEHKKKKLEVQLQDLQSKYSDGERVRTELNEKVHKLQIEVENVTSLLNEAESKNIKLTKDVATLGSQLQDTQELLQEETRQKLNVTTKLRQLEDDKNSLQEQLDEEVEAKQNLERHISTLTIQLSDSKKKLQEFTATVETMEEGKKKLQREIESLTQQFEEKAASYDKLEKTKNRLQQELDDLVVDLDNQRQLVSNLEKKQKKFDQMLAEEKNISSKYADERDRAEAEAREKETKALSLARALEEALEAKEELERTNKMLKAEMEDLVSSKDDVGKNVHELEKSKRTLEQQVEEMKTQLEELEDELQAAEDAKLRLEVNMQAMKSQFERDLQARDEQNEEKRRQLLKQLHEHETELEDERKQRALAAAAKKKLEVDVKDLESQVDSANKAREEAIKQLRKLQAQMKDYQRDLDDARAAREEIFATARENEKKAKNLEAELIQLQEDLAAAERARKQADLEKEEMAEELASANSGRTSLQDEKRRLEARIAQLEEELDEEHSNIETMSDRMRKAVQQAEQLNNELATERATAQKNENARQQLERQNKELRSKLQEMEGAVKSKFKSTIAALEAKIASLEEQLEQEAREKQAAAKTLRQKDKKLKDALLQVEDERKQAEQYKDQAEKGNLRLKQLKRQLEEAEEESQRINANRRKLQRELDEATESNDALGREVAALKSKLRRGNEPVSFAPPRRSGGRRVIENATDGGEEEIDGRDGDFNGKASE

By IC50 is commonly meant the concentration that inhibits the measured activity by half. What is called inhibition is the drop in the measured response relative to a control, in per cent. Broadly, the % inhibition is the relative decrease from the control value, in per cent. As for `O=C1c2cccnc2N=C2N(c3ccccc3)CCC12O` (centres unmarked) [Compound 189, 3a-Hydroxy-1-phenyl-1H,2H,3H,3aH,4H-pyrrolo[2,3-b]1,8-naphthyridin-4-one], the IC50 in test [1] was 1 µM. Also, in test [2], the IC50 is 1 µM, the inhibition at 5 µM amounted to 11% and the inhibition at 50 µM is 13%. Further, in test [3], the “% inhibition at 5 μM (or 10 μM if racemate) Smooth” value came out at 8%, the “% inhibition at 50 μM (or 100 μM if racemate) Smooth” value turned out to be 7%, the “Inhibition (%) smooth” value was found to be 8% and the “% inhibition. complete Smooth” value was determined as 8%. Moreover, in test [4], the “% inhibition at 5 μM (or 10 μM if racemate) Skeletal” value is 37%, the “% inhibition at 50 μM (or 100 μM if racemate) Skeletal” value was 80%, inhibition was half-maximal at 7 µM (IC50) and the “% inhibition. complete Skeletal” value was determined as 92%. In test [5], the IC50 is greater than 100 µM, the inhibition at 5 µM is 0% and the inhibition at 50 µM came out at 0%. Further, in test [6], the concentration for half-maximal inhibition (IC50) was determined as 26 µM, the “% inhibition. complete cardiac” value was 72%, the inhibition at 5 µM worked out at 11% and the inhibition at 50 µM stood at 47%. Also, in test [7], the IC50 came out at 6 µM, the “Inhibition (%) NM2A” value turned out to be 8%, the “% inhibition. complete NM2A” value is listed as 8% and the inhibition at 5 µM was found to be 4%. Also, in test [7], the inhibition at 50 µM came out at 7%. Also, in test [8], the IC50 was greater than 100 µM, the inhibition at 5 µM worked out at 0% and the inhibition at 50 µM was -5%.

Consider `O=C1c2ncccc2N=C2N(c3ccccc3)CCC12O` (centres unmarked) [Compound 190, 8a-Hydroxy-6-phenyl-6H,7H,8H,8aH,9H-pyrrolo[2,3-b]1,5-naphthyridin-9-one], for which the inhibition at 50 µM was 41% in test [2]; 44% in test [5]; 43% in test [6]; 15% in test [7]; 24% in test [8]. For the same compound, the “% inhibition at 50 μM (or 100 μM if racemate) Smooth” value in test [3] is given as 34%. In addition, the “% inhibition at 50 μM (or 100 μM if racemate) Skeletal” value in test [4] is reported as 86%.

`Cc1cc2c(s1)N=C1N(c3cccs3)CC[C@@]1(O)C2=O` [Compound 208, (9S)-9-Hydroxy-5-methyl-12-(thiophen-2-yl)-4-thia-2,12-diazatricyclo[7.3.0.0^3,7]dodeca-1,3(7),5-trien-8-one] came in with an IC50 in test [1] of 7.8 µM. In test [2], the IC50 was found to be 1.7 µM, the “% inhibition. complete NM2C” value turned out to be 69%, the inhibition at 5 µM was 54% and the inhibition at 50 µM amounted to 65%. In addition, in test [3], the “% inhibition at 5 μM (or 10 μM if racemate) Smooth” value turned out to be 26%, the “% inhibition at 50 μM (or 100 μM if racemate) Smooth” value is reported as 60% and the “% inhibition. complete Smooth” value was found to be 66%. For the same compound, in test [4], the “% inhibition at 5 μM (or 10 μM if racemate) Skeletal” value was 87%, the “% inhibition at 50 μM (or 100 μM if racemate) Skeletal” value came to 93%, the IC50 was determined as 0.36 µM and the “% inhibition. complete Skeletal” value is reported as 95%. In test [5], the half-inhibitory concentration (IC50) was 3.6 µM, the “% inhibition. complete Dicty” value worked out at 95%, the inhibition at 5 µM was determined as 55% and the inhibition at 50 µM is 89%. Moreover, the “Inhibition (%) Dicty” value in test [5] (maximum inhibition, compounds in IC50 range 1-11 μM) is listed as 95%. In addition, in test [7], the IC50 was found to be 7.2 µM, the “Inhibition (%) NM2A” value worked out at 89%, the “% inhibition. complete NM2A” value is 89% and the inhibition at 5 µM was 37%. Moreover, the inhibition at 50 µM in test [7] was 78%.

The compound `O=C1c2sccc2N=C2N(c3ccccc3)CCC12O` (centres unmarked) [Compound 183, 7-Hydroxy-4-phenyl-10-thia-2,4-diazatricyclo[7.3.0.0^3,7]dodeca-1(9),2,11-trien-8-one] showed an IC50 in test [1] of 15 µM. In test [2], the 50% inhibitory concentration (IC50) was found to be 60 µM, the “% inhibition. complete NM2C” value is given as 83%, the inhibition at 5 µM stood at 6% and the inhibition at 50 µM came to 37%. For the same compound, in test [3], the “% inhibition at 5 μM (or 10 μM if racemate) Smooth” value is 17%, the “% inhibition at 50 μM (or 100 μM if racemate) Smooth” value came to 51% and the “% inhibition. complete Smooth” value was found to be 66%. Also, in test [4], the “% inhibition at 5 μM (or 10 μM if racemate) Skeletal” value is given as 80%, the “% inhibition at 50 μM (or 100 μM if racemate) Skeletal” value is 93%, the IC50 was found to be 1 µM and the “% inhibition. complete Skeletal” value is reported as 95%. Moreover, in test [5], the IC50 is 5 µM, the “% inhibition. complete Dicty” value worked out at 100%, the inhibition at 5 µM is 26% and the inhibition at 50 µM was found to be 80%. In addition, in test [6], the 50% inhibitory concentration (IC50) was found to be 8 µM, the “% inhibition. complete cardiac” value was determined as 84%, the inhibition at 5 µM stood at 33% and the inhibition at 50 µM was 73%. For the same compound, in test [7], the IC50 was 87 µM, the “% inhibition. complete NM2A” value is 100%, the inhibition at 5 µM worked out at 4% and the inhibition at 50 µM is 37%. For the same compound, in test [8], the IC50 was determined as 12 µM, the inhibition at 5 µM was found to be 16% and the inhibition at 50 µM came out at 45%. The “% inhibition. complete NM2B” value in test [8] (maximum value of inhibition of ATPase activity) was found to be 56%.

In the case of `Cc1nsc2c1C(=O)C1(O)CCN(c3ccccc3)C1=N2` (centres unmarked) [Compound 206, 12-phenyl-9-Hydroxy-6-methyl-4-thia-2,5,12-triazatricyclo[7.3.0.0^3,7]dodeca-1,3(7),5-trien-8-one], in test [1], the midpoint of inhibition, the IC50, lay at 9 µM. In test [3], the “% inhibition at 5 μM (or 10 μM if racemate) Smooth” value is reported as 9%, the “% inhibition at 50 μM (or 100 μM if racemate) Smooth” value is given as 21% and the “% inhibition. complete Smooth” value came to 24%. In test [4], the “% inhibition at 5 μM (or 10 μM if racemate) Skeletal” value was 26%, the “% inhibition at 50 μM (or 100 μM if racemate) Skeletal” value worked out at 78%, inhibition was half-maximal at 14 µM (IC50) and the “% inhibition. complete Skeletal” value is on record as 100%. In addition, in test [6], half-maximal inhibition (IC50) was put at 10 µM, the “% inhibition. complete cardiac” value came to 47%, the inhibition at 5 µM was found to be 16% and the inhibition at 50 µM stood at 39%. The inhibition at 5 µM in test [7] turned out to be 9%.

In test [1], `COc1ccc(N2CCC3(O)C(=O)c4cc(C)sc4N=C23)cn1` (centres unmarked) [Compound 230, 9-Hydroxy-12-(6-methoxypyridin-3-yl)-5-methyl-4-thia-2,12-diazatricyclo[7.3.0.0^3,7]dodeca-1,3(7),5-trien-8-one] yielded an IC50 of 3.6 µM. In test [2], the IC50 worked out at 2.3 µM, the “% inhibition. complete NM2C” value was determined as 93%, the inhibition at 5 µM was 61% and the inhibition at 50 µM came out at 89%. Moreover, the “Inhibition (%) NM2C” value in test [2] (maximum inhibition, compounds in IC50 range 1-5 μM) was found to be 93%. Further, in test [3], the “% inhibition at 5 μM (or 10 μM if racemate) Smooth” value came out at 56%, the “% inhibition at 50 μM (or 100 μM if racemate) Smooth” value is 96%, the “Inhibition (%) smooth” value is on record as 100% and the “% inhibition. complete Smooth” value worked out at 100%. Also, in test [4], the “% inhibition at 5 μM (or 10 μM if racemate) Skeletal” value is reported as 85%, the “% inhibition at 50 μM (or 100 μM if racemate) Skeletal” value is 92%, half-maximal inhibition (IC50) was put at 0.43 µM and the “% inhibition. complete Skeletal” value is 93%. Also, in test [5], the IC50 was 8.1 µM, the “% inhibition. complete Dicty” value amounted to 100%, the inhibition at 5 µM was 36% and the inhibition at 50 µM turned out to be 90%. In addition, in test [6], the 50% inhibitory concentration (IC50) was determined as 1.9 µM, the “% inhibition. complete cardiac” value is 96%, the inhibition at 5 µM turned out to be 68% and the inhibition at 50 µM came out at 93%.
